Source: patent US20250009745A1, “CDK INHIBITOR” (SHANGHAI QILU PHARMACEUTICAL RESEARCH AND DEVELOPMENT …, priority 2021, published 2025)

What was measured:
Assay in all cases: CDK enzymology experiment in vitro, capillary mobility shift assay (MSA)
Assay type in all cases: biochemical
[1] = biological target: T1, CDK1 (Homo sapiens, UniProt P06493); settings: read-out: CDK1 (nM) inhibitory IC50
T1 construct: purchased Carna Company
How it was run: (§1)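 Recombinant kinases tested against peptide substrates in 1× kinase buffer, with compound added as a 100-fold DMSO stock. Top concentration 1, 10 or 30 μM, 3-fold dilutions over 10 points, in duplicate. Substrate conversion read by Caliper EZ Reader, normalised to no-enzyme and no-compound controls, and IC50 fitted with a variable-slope log(inhibitor)–response model.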

[2] = biological target: T2, CDK2 (Homo sapiens, UniProt P24941); settings: read-out: CDK2 (nM) inhibitory IC50
T2 construct: purchased Carna Company
How it was run: as §1

[3] = biological target: T3, CDK4 (Homo sapiens, UniProt P11802); settings: read-out: CDK4 (nM) inhibitory IC50
T3 construct: purchased Carna Company
How it was run: as §1

[4] = biological target: T4, CDK7 (Homo sapiens, UniProt P50613); settings: read-out: CDK7 (nM) inhibitory IC50
T4 construct: purchased Carna Company
How it was run: as §1

[5] = biological target: T5, CDK9 (Homo sapiens, UniProt P50750); settings: read-out: CDK9 (nM) inhibitory IC50
T5 construct: purchased Carna Company
How it was run: as §1

[6] = biological target: T6, CDK6 (Homo sapiens, UniProt Q00534); settings: read-out: CDK6 (nM) inhibitory IC50
T6 construct: purchased Carna Company
Protocol: CDK1/CDK2/CDK4/CDK6/CDK7/CDK9 were purchased from Carna Company; Carliper substrate CTD3/substrate 18/substrate 8 were purchased from Gil Biochemical Company; Dinaciclib/Palbociclib were purchased from Selleckchem Company; DMSO was purchased from Sigma Company; 384-well plates were purchased from Corning Company.
• (1) Preparation of 1×Kinase buffer. • (2) Preparation of compound concentration gradient: Test concentration of the test compound was started at 1 μM, 10 μM or 30 μM, 3-fold dilution, 10 concentrations, detected in duplicate. […] Liquid handler Echo 550 was used to transfer 250 nL of 100-fold final concentration of the compound to the target plate 384-well plate. […] The 384-well plate was centrifuged at 1000 rpm for 30 seconds, and shaken to mix uniformly. • (10) The conversion rate was read with Caliper EZ Reader.
Where, conversion %_sample is the readings of conversion rate of the sample; conversion %_min: the average value of negative control wells, representing the readings of conversion rate of wells without enzyme activity; conversion %_max: the average value of positive control wells, representing the readings of conversion rate of wells without compound inhibition.
Taking the log value of the concentration as the X-axis, and the percentage inhibition rate as the Y-axis, the dose-effect curve was fitted using the log(inhibitor) vs. response—Variable slope of the analysis software GraphPad Prism 5 so as to obtain the IC50 value of each compound on the enzyme activity.
Y=Bottom+(Top−Bottom)/(1+10^((Log IC50−X)*HillSlope)). Calculation formula: […]

T3 sequence (P11802 whole entry): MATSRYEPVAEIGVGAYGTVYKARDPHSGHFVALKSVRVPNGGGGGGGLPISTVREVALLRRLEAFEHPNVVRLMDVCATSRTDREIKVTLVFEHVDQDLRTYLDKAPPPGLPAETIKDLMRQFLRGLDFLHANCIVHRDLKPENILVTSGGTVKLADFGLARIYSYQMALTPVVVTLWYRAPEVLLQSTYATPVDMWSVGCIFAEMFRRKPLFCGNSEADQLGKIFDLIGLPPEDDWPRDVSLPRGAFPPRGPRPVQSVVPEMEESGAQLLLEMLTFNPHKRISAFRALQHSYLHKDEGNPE
T3 sequence (P30281 whole entry partner): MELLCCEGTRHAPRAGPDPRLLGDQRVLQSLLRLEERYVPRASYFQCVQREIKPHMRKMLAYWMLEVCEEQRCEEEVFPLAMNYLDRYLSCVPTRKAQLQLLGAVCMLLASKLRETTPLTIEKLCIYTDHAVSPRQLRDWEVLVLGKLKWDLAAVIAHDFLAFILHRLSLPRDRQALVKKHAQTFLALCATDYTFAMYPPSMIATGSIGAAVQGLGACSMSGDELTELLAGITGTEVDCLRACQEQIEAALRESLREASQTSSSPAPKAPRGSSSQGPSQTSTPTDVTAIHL
T1 sequence (P06493 whole entry): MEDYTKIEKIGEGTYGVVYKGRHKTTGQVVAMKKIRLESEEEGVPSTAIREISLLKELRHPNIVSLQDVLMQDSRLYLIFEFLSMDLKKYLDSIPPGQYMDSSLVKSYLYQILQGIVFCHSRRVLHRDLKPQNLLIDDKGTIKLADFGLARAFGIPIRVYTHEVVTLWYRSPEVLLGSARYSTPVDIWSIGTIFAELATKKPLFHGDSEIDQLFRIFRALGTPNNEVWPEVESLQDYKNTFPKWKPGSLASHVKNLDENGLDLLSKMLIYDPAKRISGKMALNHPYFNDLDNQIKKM
T1 sequence (P14635 whole entry partner): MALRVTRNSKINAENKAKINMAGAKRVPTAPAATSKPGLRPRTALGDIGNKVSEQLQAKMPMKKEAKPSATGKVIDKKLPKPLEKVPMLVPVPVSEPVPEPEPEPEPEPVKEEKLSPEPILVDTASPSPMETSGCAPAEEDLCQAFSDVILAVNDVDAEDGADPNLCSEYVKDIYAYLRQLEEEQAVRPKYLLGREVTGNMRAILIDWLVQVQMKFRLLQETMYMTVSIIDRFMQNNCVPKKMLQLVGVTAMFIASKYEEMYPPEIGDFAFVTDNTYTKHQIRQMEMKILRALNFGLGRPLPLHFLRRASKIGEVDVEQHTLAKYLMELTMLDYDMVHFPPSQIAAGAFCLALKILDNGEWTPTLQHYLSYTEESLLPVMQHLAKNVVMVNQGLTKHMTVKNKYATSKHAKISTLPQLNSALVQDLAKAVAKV
T6 sequence (Q00534 whole entry): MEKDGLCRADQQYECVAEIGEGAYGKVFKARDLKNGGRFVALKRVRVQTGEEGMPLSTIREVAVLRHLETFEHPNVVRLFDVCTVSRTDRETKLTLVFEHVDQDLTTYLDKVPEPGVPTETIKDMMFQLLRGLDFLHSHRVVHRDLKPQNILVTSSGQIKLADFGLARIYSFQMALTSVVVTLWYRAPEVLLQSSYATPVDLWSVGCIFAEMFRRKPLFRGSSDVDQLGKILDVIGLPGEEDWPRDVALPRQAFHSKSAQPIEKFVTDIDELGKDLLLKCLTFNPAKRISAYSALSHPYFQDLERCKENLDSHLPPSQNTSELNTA
T6 sequence (P30281 whole entry partner): as the sequence (P30281 whole entry partner) above
T4 sequence (P50613 whole entry): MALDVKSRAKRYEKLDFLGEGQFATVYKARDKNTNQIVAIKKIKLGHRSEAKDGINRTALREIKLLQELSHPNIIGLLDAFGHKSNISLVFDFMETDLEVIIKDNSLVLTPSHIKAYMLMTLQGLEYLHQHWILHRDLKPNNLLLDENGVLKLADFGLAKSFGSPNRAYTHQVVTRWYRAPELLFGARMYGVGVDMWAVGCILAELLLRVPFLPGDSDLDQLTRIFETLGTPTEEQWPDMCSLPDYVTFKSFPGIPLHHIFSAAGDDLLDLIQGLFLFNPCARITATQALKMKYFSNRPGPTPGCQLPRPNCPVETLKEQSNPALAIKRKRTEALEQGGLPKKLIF
T4 sequence (P51946 whole entry partner): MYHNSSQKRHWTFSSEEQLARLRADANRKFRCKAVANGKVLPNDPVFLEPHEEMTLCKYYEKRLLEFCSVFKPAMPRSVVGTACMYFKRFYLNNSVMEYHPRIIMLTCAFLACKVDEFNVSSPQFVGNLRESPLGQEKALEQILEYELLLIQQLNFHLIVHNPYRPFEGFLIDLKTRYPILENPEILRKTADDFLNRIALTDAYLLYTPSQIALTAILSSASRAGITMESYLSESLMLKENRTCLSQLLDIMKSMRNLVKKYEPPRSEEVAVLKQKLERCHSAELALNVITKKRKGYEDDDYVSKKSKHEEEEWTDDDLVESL
T4 sequence (P51948 whole entry partner): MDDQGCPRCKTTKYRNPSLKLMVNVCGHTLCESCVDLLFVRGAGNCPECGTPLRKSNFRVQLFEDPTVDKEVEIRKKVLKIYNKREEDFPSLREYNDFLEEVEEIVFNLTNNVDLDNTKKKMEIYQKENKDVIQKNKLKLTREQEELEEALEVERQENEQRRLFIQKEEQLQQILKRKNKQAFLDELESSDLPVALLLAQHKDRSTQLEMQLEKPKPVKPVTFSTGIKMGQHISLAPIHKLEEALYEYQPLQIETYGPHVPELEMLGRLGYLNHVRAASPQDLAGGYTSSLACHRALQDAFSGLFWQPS
T5 sequence (P50750 whole entry): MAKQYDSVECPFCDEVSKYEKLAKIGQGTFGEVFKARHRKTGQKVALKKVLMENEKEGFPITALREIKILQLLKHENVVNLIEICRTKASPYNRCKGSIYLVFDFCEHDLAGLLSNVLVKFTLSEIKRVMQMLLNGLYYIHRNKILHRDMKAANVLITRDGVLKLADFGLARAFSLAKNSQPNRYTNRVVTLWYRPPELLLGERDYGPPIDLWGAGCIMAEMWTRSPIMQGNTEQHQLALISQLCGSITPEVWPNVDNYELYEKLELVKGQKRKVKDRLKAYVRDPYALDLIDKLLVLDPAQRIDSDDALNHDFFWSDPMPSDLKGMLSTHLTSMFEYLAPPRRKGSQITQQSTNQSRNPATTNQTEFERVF
T5 sequence (O60563 whole entry partner): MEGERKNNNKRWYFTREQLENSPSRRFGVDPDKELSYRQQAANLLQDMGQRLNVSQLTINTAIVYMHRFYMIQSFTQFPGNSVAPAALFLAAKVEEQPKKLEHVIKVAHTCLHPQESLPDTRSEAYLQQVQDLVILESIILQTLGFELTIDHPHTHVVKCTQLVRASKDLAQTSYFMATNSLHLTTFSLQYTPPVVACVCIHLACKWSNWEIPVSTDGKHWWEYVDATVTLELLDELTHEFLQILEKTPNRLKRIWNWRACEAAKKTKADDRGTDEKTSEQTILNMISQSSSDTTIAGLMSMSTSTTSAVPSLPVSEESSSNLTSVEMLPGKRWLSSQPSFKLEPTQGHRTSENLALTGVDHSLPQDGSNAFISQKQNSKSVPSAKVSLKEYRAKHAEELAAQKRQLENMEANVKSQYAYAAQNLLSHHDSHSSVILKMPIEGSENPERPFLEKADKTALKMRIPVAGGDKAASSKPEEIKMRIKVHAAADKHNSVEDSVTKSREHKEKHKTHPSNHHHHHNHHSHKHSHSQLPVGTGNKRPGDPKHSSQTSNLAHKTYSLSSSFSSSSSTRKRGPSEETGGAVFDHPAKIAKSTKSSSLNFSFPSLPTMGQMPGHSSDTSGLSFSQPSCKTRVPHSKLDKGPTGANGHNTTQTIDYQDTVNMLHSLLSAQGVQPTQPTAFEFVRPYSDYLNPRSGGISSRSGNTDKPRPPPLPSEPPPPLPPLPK

Row | SMILES | IC50 [1] [nM] | IC50 [2] [nM] | IC50 [3] [nM] | IC50 [4] [nM] | IC50 [5] [nM] | IC50 [6] [nM]
1 | CN(C)CCN(c1nc(NC2CCN(S(=O)(=O)c3cnn(C)c3)CC2)ncc1C#N)C1CCCC1 [Compound 148] | 100 to 1000 | 10 to 50 | 100 to 1000 | 100 to 1000 | > 1000 | 100 to 1000
2 | O=S(=O)(c1ccc(Br)cc1)N1CCC(Nc2ncc(C(F)(F)F)c(C=C3CCCC3)n2)CC1 [Compound 200] | – | 10 to 50 | 100 to 1000 | 50 to 100 | – | –
3 | Cn1cc(S(=O)(=O)N2CCC(Nc3ncc(C(F)(F)F)c(NC4CCCC4)n3)CC2)cn1 [Compound 32] | 10 to 50 | 0.5 to 2.5 | 10 to 50 | – | – | 10 to 50
4 | Cn1cnc(S(=O)(=O)N2CCC(Nc3ncc(C(F)(F)F)c(NC4CCCC4)n3)CC2)c1 [Compound 35] | 10 to 50 | 0.5 to 2.5 | 10 to 50 | – | – | 50 to 100
5 | CS(=O)(=O)N1CCC(Nc2cc(NC3CCCC3)c(C#N)cn2)CC1 [Example 2] | 100 to 1000 | 10 to 50 | 10 to 50 | – | – | 10 to 50
6 | O=S(=O)(c1ccc(C2CNC2)c(F)c1)N1CCC(Nc2ncc(C(F)(F)F)c(O[C@H]3CCOC3)n2)CC1 [Compound 160] | – | 0.5 to 2.5 | 2.5 to 10 | – | – | 0.5 to 2.5
7 | O=S(=O)(c1ccc(C23CCNCC2C3)cc1)N1CCC(Nc2ncc(C(F)(F)F)c(O[C@H]3CCOC3)n2)CC1 (some centres unmarked) [Compound 159] | – | 0.5 to 2.5 | 0.5 to 2.5 | – | – | 0.5 to 2.5
8 | N#Cc1cnc(NC2CCN(S(=O)(=O)c3ccc(N4CCOCC4)cc3)CC2)nc1NC1CCCC1 [Compound 94] | – | 0.5 to 2.5 | 2.5 to 10 | – | – | 10 to 50
9 | N#Cc1cnc(NC2CCN(S(=O)(=O)c3ccc(C4CCNCC4)cc3)CC2)nc1NC1CCCC1 [Compound 101] | – | 0.5 to 2.5 | 0.5 to 2.5 | – | – | 0.5 to 2.5
10 | Cn1cc(S(=O)(=O)N2CCC(Nc3ncc(C#N)c(N[C@@H]4CCC[C@H]4O)n3)CC2)cn1 [Compound 45] | 10 to 50 | 2.5 to 10 | 10 to 50 | – | – | 100 to 1000
11 | Cn1cc(S(=O)(=O)N2CCC(Nc3ncc(C#N)c(N(C4CCCC4)C4CC4)n3)CC2)cn1 [Compound 82] | – | 0.5 to 2.5 | 2.5 to 10 | – | – | 0.5 to 2.5
12 | N#Cc1cnc(NC2CCN(S(=O)(=O)c3ccc(C4=CCNCC4)cc3)CC2)nc1NC1CCCC1(F)F (centres unmarked) [Compound 135] | – | 0.5 to 2.5 | 0.5 to 2.5 | – | – | 0.5 to 2.5
13 | Cn1cc(-c2ccc(S(=O)(=O)N3CCC(Nc4ncc(C#N)c(NC5CCCC5)n4)CC3)cc2)cn1 [Compound 49] | 10 to 50 | 0.5 to 2.5 | 2.5 to 10 | – | – | 0.5 to 2.5
14 | O=S(=O)(c1ccc(N2CCNC(C(F)(F)F)C2)nc1)N1CCC(Nc2ncc(C(F)(F)F)c(O[C@H]3CCOC3)n2)CC1 (some centres unmarked) [Compound 167] | – | 0.5 to 2.5 | 0.5 to 2.5 | – | – | 0.5 to 2.5
15 | O=S(=O)(c1ccc(N2CC3CC(C2)N3)nc1)N1CCC(Nc2ncc(C(F)(F)F)c(O[C@H]3CCOC3)n2)CC1 [Compound 180] | – | < 0.5 | 0.5 to 2.5 | – | – | 0.5 to 2.5
16 | N#Cc1cnc(NC2CCN(S(=O)(=O)c3ccc(C4=CCNCC4)cc3)CC2)nc1O[C@H]1CCOC1 [Compound 104] | – | 0.5 to 2.5 | 2.5 to 10 | – | – | 0.5 to 2.5
17 | O=S(=O)(c1ccc(N2C3CCC2CNC3)cc1)N1CCC(Nc2ncc(C(F)(F)F)c(O[C@H]3CCOC3)n2)CC1 [Compound 195] | – | < 0.5 | 0.5 to 2.5 | – | – | 0.5 to 2.5
18 | CN1CC=C(c2ccc(S(=O)(=O)N3CCC(Nc4ncc(C#N)c(NC5CCCC5)n4)CC3)cc2)CC1 [Example 16, 4-(Cyclopentylamino)-2-((1-((4-(1-methyl-1,2,3,6-tetrahydropyridin-4-yl)phenyl)sulfonyl)piperidin-4-yl)amino)pyrimidine-5-carbonitrile] | – | 0.5 to 2.5 | 0.5 to 2.5 | – | – | 0.5 to 2.5
19 | COc1cc(S(=O)(=O)N2CCC(Nc3ncc(C(F)(F)F)c(O[C@H]4CCOC4)n3)CC2)ccc1C1=CCNCC1 [Compound 194] | – | 0.5 to 2.5 | 0.5 to 2.5 | – | – | 0.5 to 2.5
20 | N#CC1CCN(c2ccc(S(=O)(=O)N3CCC(Nc4ncc(C(F)(F)F)c(O[C@H]5CCOC5)n4)CC3)cc2)CC1 [Compound 143] | – | 0.5 to 2.5 | 2.5 to 10 | – | – | 10 to 50
21 | CS(=O)(=O)N1CCC(Nc2ncc(C#N)c(NC3CCCC3)n2)CC1 [Example 1] | 100 to 1000 | 10 to 50 | 10 to 50 | – | – | 10 to 50
22 | CC(C)Nc1nc(NC2CCN(S(C)(=O)=O)CC2)ncc1C#N [Compound 28] | 100 to 1000 | 10 to 50 | 50 to 100 | – | – | 50 to 100
23 | C[C@@H]1CN(c2ccc(S(=O)(=O)N3CCC(Nc4ncc(C(F)(F)F)c(O[C@H]5CCOC5)n4)CC3)cn2)CCN1 [Compound 187] | – | < 0.5 | 0.5 to 2.5 | – | – | 0.5 to 2.5
24 | O=S(=O)(c1ccc(C2=CCNCC2)cc1)N1CCC(Nc2ncc(C(F)(F)F)c(NC3CCCC3(F)F)n2)CC1 (centres unmarked) [Compound 136] | – | 0.5 to 2.5 | 2.5 to 10 | – | – | 0.5 to 2.5
25 | N#Cc1cnc(NC2CCN(S(=O)(=O)c3ccc(N4CCNC(=O)C4)cc3)CC2)nc1NC1CCCC1 [Compound 103] | – | 0.5 to 2.5 | 2.5 to 10 | – | – | 0.5 to 2.5
26 | Cn1cc(S(=O)(=O)N2CCC(Nc3ncc(C#N)c(N[C@H]4CC[C@@H](O)C4)n3)CC2)cn1 (racemic) [Example 11] | 10 to 50 | 0.5 to 2.5 | 10 to 50 | – | – | 10 to 50

Now from value to compound:

Row | IC50 [1] [nM] | IC50 [2] [nM] | IC50 [3] [nM] | IC50 [4] [nM] | IC50 [5] [nM] | IC50 [6] [nM] | SMILES
27 | – | < 0.5 | 0.5 to 2.5 | – | – | 0.5 to 2.5 | C[C@H]1CN(c2ccc(S(=O)(=O)N3CCC(Nc4ncc(C(F)(F)F)c(O[C@H]5CCOC5)n4)CC3)cc2)CCN1 [Compound 186]
28 | – | < 0.5 | 0.5 to 2.5 | – | – | 0.5 to 2.5 | O=S(=O)(c1ccc(C2CCNCC2)nc1)N1CCC(Nc2ncc(C(F)(F)F)c(O[C@H]3CCOC3)n2)CC1 [Compound 174]
29 | – | < 0.5 | 0.5 to 2.5 | – | – | 0.5 to 2.5 | O=S(=O)(c1ccc(C2CCNC2)cc1)N1CCC(Nc2ncc(C(F)(F)F)c(O[C@H]3CCOC3)n2)CC1 (some centres unmarked) [Compound 145]
30 | – | < 0.5 | 0.5 to 2.5 | – | – | 0.5 to 2.5 | O=S(=O)(c1ccc(N2CC3CNCC3C2)cc1)N1CCC(Nc2ncc(C(F)(F)F)c(O[C@H]3CCOC3)n2)CC1 (some centres unmarked) [Compound 191]
31 | – | < 0.5 | 0.5 to 2.5 | – | – | 0.5 to 2.5 | C[C@@H]1CN(c2ccc(S(=O)(=O)N3CCC(Nc4ncc(C(F)(F)F)c(O[C@H]5CCOC5)n4)CC3)cc2)C[C@H](C)N1 [Example 169]
32 | – | < 0.5 | 0.5 to 2.5 | – | – | 0.5 to 2.5 | Cc1nnc(-c2ccc(S(=O)(=O)N3CCC(Nc4ncc(C(F)(F)F)c(O[C@H]5CCOC5)n4)CC3)cc2)o1 [Compound 161]
33 | – | < 0.5 | 0.5 to 2.5 | – | – | 0.5 to 2.5 | CN1CCN(c2ccc(S(=O)(=O)N3CCC(Nc4ncc(C(F)(F)F)c(O[C@H]5CCOC5)n4)CC3)cc2)CC1 [Compound 204]
34 | – | < 0.5 | 2.5 to 10 | – | – | 0.5 to 2.5 | Cn1cc(S(=O)(=O)N2CCC(Nc3ncc(C#N)c(OC4CCCC4)n3)CC2)cn1 [Example 6, 4-(Cyclopentyloxy)-2-((1-((1-methyl-1H-pyrazol-4-yl)sulfonyl)piperidin-4-yl)amino)pyrimidine-5-carbonitrile]
35 | – | < 0.5 | 0.5 to 2.5 | – | – | 0.5 to 2.5 | Cc1cc(S(=O)(=O)N2CCC(Nc3ncc(C(F)(F)F)c(O[C@H]4CCOC4)n3)CC2)ccc1N1CCNCC1 [Compound 171]
36 | – | < 0.5 | 0.5 to 2.5 | – | – | 0.5 to 2.5 | N#Cc1cnc(NC2CCN(S(=O)(=O)c3ccc(N4CCC(O)CC4)cc3)CC2)nc1NC1CCCC1 [Compound 107]
37 | – | < 0.5 | 0.5 to 2.5 | – | – | 0.5 to 2.5 | Cc1cc(S(=O)(=O)N2CCC(Nc3ncc(C(F)(F)F)c(O[C@H]4CCOC4)n3)CC2)ccc1C1CCNCC1 [Compound 155]
38 | – | < 0.5 | 0.5 to 2.5 | – | – | 0.5 to 2.5 | O=S(=O)(c1ccc(C2CCNCC2)cc1)N1CCC(Nc2ncc(C(F)(F)F)c(O[C@H]3CCOC3)n2)CC1 [Compound 130]
